# In patent publication US10392630B2, “Plants having increased tolerance to herbicides” (BASF AGRO B.V., priority 2013, dated 2019):
# Numbering of substitutions follows the chain as printed.
# Legend:
# Assay in all cases: biochemical
# [1] = target: T1, Amaranthus mutant PPO (AMARE) (Amaranthus tuberculatus, UniProt Q0NZW9, F420I/R128L)
# T1 sequence (Q0NZW9 1-534 R128L/F420I): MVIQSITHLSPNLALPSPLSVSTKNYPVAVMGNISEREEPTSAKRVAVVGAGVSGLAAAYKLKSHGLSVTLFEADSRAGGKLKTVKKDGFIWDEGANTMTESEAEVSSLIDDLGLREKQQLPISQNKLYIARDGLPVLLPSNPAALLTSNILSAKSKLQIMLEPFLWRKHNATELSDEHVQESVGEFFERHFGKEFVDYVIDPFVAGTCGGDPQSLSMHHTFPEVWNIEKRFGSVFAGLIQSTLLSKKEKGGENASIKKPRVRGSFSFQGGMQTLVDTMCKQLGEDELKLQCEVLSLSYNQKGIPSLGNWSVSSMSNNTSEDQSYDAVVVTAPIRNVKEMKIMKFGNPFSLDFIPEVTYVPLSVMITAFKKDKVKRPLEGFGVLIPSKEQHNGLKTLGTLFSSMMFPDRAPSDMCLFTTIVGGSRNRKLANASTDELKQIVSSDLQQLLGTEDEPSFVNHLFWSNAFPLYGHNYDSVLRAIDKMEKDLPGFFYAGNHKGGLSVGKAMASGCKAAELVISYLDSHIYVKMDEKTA
# [2] = target: T2, Amaranthus mutant PPO (AMARE) (Amaranthus tuberculatus, UniProt Q0NZW9, F420V/R128A)
# T2 sequence (Q0NZW9 1-534 R128A/F420V): T1 sequence (Q0NZW9 1-534 R128L/F420I) with L128A, I420V
# [3] = target: T3, Amaranthus mutant PPO (AMARE) (Amaranthus tuberculatus, UniProt Q0NZW9, F420V/R128I)
# T3 sequence (Q0NZW9 1-534 R128I/F420V): T1 sequence (Q0NZW9 1-534 R128L/F420I) with L128I, I420V
# [4] = target: T4, Amaranthus mutant PPO (AMARE) (Amaranthus tuberculatus, UniProt Q0NZW9, F420L)
# T4 sequence (Q0NZW9 1-534 F420L): T1 sequence (Q0NZW9 1-534 R128L/F420I) with L128R, I420L
# [5] = target: T5, Amaranthus mutant PPO (AMARE) (Amaranthus tuberculatus, UniProt Q0NZW9, R128L)
# T5 sequence (Q0NZW9 1-534 R128L): T1 sequence (Q0NZW9 1-534 R128L/F420I) with I420F
SMILES,IC50 [1] [µM],IC50 [2] [µM],IC50 [3] [µM],IC50 [4] [µM],IC50 [5] [µM]
C#CCN1C(=O)C(F)(F)Oc2cc(F)c(-n3c(=O)n(C)c(=S)n(C)c3=O)cc21 [BAS 850H],1.23,0.025,0.424,,
CC(C)N(C)S(=O)(=O)NC(=O)c1cc(-n2c(=O)cc(C(F)(F)F)n(C)c2=O)c(F)cc1Cl [saflufenacil],> 10,> 10,> 10,7.2,0.222
